ChEMBL document CHEMBL5380791, “Modular Biomimetic Strategy Enabled Discovery of Simplified Pseudo-Natural Macrocyclic P-Glycoprotein Inhibitors Capable of Overcoming Multidrug Resistance” (J Med Chem, 2023)
The source made the active and inactive calls. The rule behind the calls is not given here.

Legend:
KBv200 [1] = assay: Antitumor activity against human KBv200 cells xenografted in Balb/cA nude mouse assessed as mean tumor volume at 25 mg/kg, ip administered as single dose and measured on day 0 in presence of vinorelbine; type: functional
[2] = Cmax in CD-1 mouse at 30 mg/kg, po; type: ADME, organism-based; set-up: dose 30 mg/kg, route po; conditions: in vivo
K562/Adr = assay: Reversal of vinorelbine resistance in human K562/Adr cells assessed as reduction in cell viability incubated for 72 hrs in presence of vinorelbine (reference value: 7320.6+/-2115.2 nM); type: functional, cell-based
KBv200 [3] = assay: Antitumor activity against human KBv200 cells xenografted in Balb/cA nude mouse assessed as mean tumor volume at 50 mg/kg, ip qd administered for 13 days; type: functional; conditions: time 13 day
KBv200 [4] = assay: Antitumor activity against human KBv200 cells xenografted in Balb/cA nude mouse assessed as T/C ratio at 50 mg/kg, ip qd administered for 13 days; type: functional; conditions: time 13 day
KBv200 [5] = assay: Antitumor activity against human KBv200 cells xenografted in Balb/cA nude mouse assessed as tumor growth inhibition at 50 mg/kg, ip qd administered for 13 days in presence of vinorelbine; type: functional; conditions: KBv200, 312 h, time 13 day
[6] = Toxicity in Balb/cA nude mouse xenografted with human KBv200 cells assessed as changes in body weight at 50 mg/kg, ip qd administered for 13 days in presence of vinorelbine; type: organism-based; conditions: in vivo, 312 h, time 13 day
[7] = Toxicity in Balb/cA nude mouse xenografted with human KBv200 cells assessed as mortality at 50 mg/kg, ip qd administered for 13 days; type: organism-based; conditions: in vivo, 312 h, time 13 day
KB = assay: Reversal of vinorelbine resistance in human KB cells assessed as reduction in cell viability incubated for 72 hrs in presence of vinorelbine (reference value: 7.4+/-2.2 nM); type: functional, cell-based
K562 = assay: Reversal of vinorelbine resistance in human K562 cells assessed as reduction in cell viability incubated for 72 hrs in presence of vinorelbine (reference value: 5.9+/-0.2 nM); type: functional, cell-based; conditions: K562, 72 h
KBv200 [8] = assay: Reversal of vinorelbine resistance in human KBv200 cells assessed as reduction in cell viability incubated for 72 hrs in presence of vinorelbine (reference value: 224 to 228.30 nM); type: functional, cell-based; conditions: KBv200, 72 h, read-out: IC50
[9] = target: ATP-dependent translocase ABCB1 (Homo sapiens, UniProt P08183); assay: Inhibition of P-gp in human KBv200 cells assessed as induction of conformation change by measuring increase in UIC-2 binding level at 50 uM incubated for 10 mins by UIC-2 reactivity shift assay; type: cell-based; conditions: kbv200, 10 min
KBv200 [10] = assay: Antitumor activity against human KBv200 cells xenografted in Balb/cA nude mouse assessed as mean tumor volume at 50 mg/kg, ip administered as single dose and measured on day 0 in presence of vinorelbine; type: functional
[11] = Half life in CD-1 mouse at 3 mg/kg, iv; type: ADME, organism-based; conditions: in vivo
[12] = AUClast in CD-1 mouse at 30 mg/kg, po; type: ADME, organism-based; set-up: dose 30 mg/kg, route po; conditions: in vivo
[13] = Toxicity in Balb/cA nude mouse xenografted with human KBv200 cells assessed as mortality at 25 mg/kg, ip qd administered for 13 days in presence of vinorelbine; type: organism-based; conditions: in vivo, 312 h, time 13 day
KBv200 [14] = assay: Antitumor activity against human KBv200 cells xenografted in Balb/cA nude mouse assessed as mean tumor volume at 50 mg/kg, ip qd administered for 13 days in presence of vinorelbine; type: functional; conditions: time 13 day
KBv200 [15] = assay: Downregulation of P-gp mRNA expression level in human KBV200 cells by qRT-PCR analysis; type: functional, cell-based
[16] = AUCinf in CD-1 mouse at 25 mg/kg, ip; type: ADME, organism-based; set-up: dose 25 mg/kg, route ip; conditions: in vivo
[17] = AUCinf in CD-1 mouse at 3 mg/kg, iv; type: ADME, organism-based; set-up: dose 3 mg/kg, route iv; conditions: in vivo
KBv200 [18] = assay: Reversal of paclitaxel resistance in human KBv200 cells assessed as reduction in cell viability incubated for 72 hrs in presence of paclitaxel (reference value: 392.9+/-196.5 nM); type: functional, cell-based; conditions: KBv200, 72 h
[19] = Tmax in CD-1 mouse at 30 mg/kg, po; type: ADME, organism-based; conditions: in vivo
KBv200 [20] = assay: Antitumor activity against human KBv200 cells xenografted in Balb/cA nude mouse assessed as tumor growth inhibition at 25 mg/kg, ip qd administered for 13 days in presence of vinorelbine; type: functional; conditions: KBv200, 312 h, time 13 day
[21] = Toxicity in Balb/cA nude mouse xenografted with human KBv200 cells assessed as changes in body weight at 50 mg/kg, ip qd administered for 13 days; type: organism-based; conditions: in vivo, 312 h, time 13 day
[22] = Oral bioavailability in CD-1 mouse at 30 mg/kg; type: ADME, organism-based; conditions: in vivo
[23] = Toxicity in Balb/cA nude mouse xenografted with human KBv200 cells assessed as mortality at 50 mg/kg, ip qd administered for 13 days in presence of vinorelbine; type: organism-based; conditions: in vivo, 312 h, time 13 day
[24] = AUClast in CD-1 mouse at 3 mg/kg, iv; type: ADME, organism-based; set-up: dose 3 mg/kg, route iv; conditions: in vivo
[25] = Cytotoxicity against human L02 cells assessed as reduction in cell viability incubated for 48 hrs by CCK-8 assay; type: toxicity, cell-based
KBv200 [26] = assay: Antitumor activity against human KBv200 cells xenografted in Balb/cA nude mouse assessed as T/C ratio at 25 mg/kg, ip qd administered for 13 days in presence of vinorelbine; type: functional; conditions: time 13 day
[27] = Half life in CD-1 mouse at 25 mg/kg, ip; type: ADME, organism-based; conditions: in vivo
KBv200 [28] = assay: Antitumor activity against human KBv200 cells xenografted in Balb/cA nude mouse assessed as tumor growth inhibition at 50 mg/kg, ip qd administered for 13 days; type: functional; conditions: KBv200, 312 h, time 13 day
OVCAR-8 = assay: Reversal of vinorelbine resistance in human OVCAR-8 cells assessed as reduction in cell viability incubated for 72 hrs in presence of vinorelbine (reference value: 16.2+/-4.7 nM); type: functional, cell-based; conditions: OVCAR-8, 72 h
[29] = Clearance in CD-1 mouse at 3 mg/kg, iv; type: ADME, organism-based; conditions: in vivo
[30] = Tmax in CD-1 mouse at 25 mg/kg, ip; type: ADME, organism-based; conditions: in vivo
[31] = AUCinf in CD-1 mouse at 30 mg/kg, po; type: ADME, organism-based; set-up: dose 30 mg/kg, route po; conditions: in vivo
KBv200 [32] = assay: Reversal of adriamycin resistance in human KBv200 cells assessed as reduction in cell viability incubated for 72 hrs in presence of adriamycin (reference value: 1291.2+/-308.9 nM); type: functional, cell-based; conditions: KBv200, 72 h
[33] = AUClast in CD-1 mouse at 25 mg/kg, ip; type: ADME, organism-based; set-up: dose 25 mg/kg, route ip; conditions: in vivo
[34] = Cytotoxicity against human HEK293T cells assessed as reduction in cell viability incubated for 48 hrs by CCK-8 assay; type: toxicity, cell-based, HEK-293T
KBv200 [35] = assay: Antitumor activity against human KBv200 cells xenografted in Balb/cA nude mouse assessed as mean tumor volume at 50 mg/kg, ip administered as single dose and measured on day 0; type: functional
[36] = Bioavailability in CD-1 mouse at 25 mg/kg, ip; type: ADME, organism-based; conditions: in vivo
KBv200 [37] = assay: Antitumor activity against human KBv200 cells xenografted in Balb/cA nude mouse assessed as T/C ratio at 50 mg/kg, ip qd administered for 13 days in presence of vinorelbine; type: functional; conditions: time 13 day
KBv200 [38] = assay: Reversal fold, ratio of vinorelbine IC50 for cytotoxicity against human KBv200 cells over test compound IC50 for reversal of vinorelbine resistance in human KBv200 cells; type: functional
KBv200 [39] = assay: Antitumor activity against human KBv200 cells xenografted in Balb/cA nude mouse assessed as mean tumor volume at 25 mg/kg, ip qd administered for 13 days in presence of vinorelbine; type: functional; conditions: time 13 day
NCI/ADR-RES = assay: Reversal of vinorelbine resistance in human NCI/ADR-RES cells assessed as reduction in cell viability incubated for 72 hrs in presence of vinorelbine (reference value: 6125.7+/-3267.7 nM); type: functional, cell-based
[40] = Toxicity in Balb/cA nude mouse xenografted with human KBv200 cells assessed as changes in body weight at 25 mg/kg, ip qd administered for 13 days in presence of vinorelbine; type: organism-based; conditions: in vivo, 312 h, time 13 day
[41] = Cmax in CD-1 mouse at 25 mg/kg, ip; type: ADME, organism-based; set-up: dose 25 mg/kg, route ip; conditions: in vivo
[42] = Half life in CD-1 mouse at 30 mg/kg, po; type: ADME, organism-based; conditions: in vivo

ATP-dependent translocase ABCB1, sequence (P08183 whole entry): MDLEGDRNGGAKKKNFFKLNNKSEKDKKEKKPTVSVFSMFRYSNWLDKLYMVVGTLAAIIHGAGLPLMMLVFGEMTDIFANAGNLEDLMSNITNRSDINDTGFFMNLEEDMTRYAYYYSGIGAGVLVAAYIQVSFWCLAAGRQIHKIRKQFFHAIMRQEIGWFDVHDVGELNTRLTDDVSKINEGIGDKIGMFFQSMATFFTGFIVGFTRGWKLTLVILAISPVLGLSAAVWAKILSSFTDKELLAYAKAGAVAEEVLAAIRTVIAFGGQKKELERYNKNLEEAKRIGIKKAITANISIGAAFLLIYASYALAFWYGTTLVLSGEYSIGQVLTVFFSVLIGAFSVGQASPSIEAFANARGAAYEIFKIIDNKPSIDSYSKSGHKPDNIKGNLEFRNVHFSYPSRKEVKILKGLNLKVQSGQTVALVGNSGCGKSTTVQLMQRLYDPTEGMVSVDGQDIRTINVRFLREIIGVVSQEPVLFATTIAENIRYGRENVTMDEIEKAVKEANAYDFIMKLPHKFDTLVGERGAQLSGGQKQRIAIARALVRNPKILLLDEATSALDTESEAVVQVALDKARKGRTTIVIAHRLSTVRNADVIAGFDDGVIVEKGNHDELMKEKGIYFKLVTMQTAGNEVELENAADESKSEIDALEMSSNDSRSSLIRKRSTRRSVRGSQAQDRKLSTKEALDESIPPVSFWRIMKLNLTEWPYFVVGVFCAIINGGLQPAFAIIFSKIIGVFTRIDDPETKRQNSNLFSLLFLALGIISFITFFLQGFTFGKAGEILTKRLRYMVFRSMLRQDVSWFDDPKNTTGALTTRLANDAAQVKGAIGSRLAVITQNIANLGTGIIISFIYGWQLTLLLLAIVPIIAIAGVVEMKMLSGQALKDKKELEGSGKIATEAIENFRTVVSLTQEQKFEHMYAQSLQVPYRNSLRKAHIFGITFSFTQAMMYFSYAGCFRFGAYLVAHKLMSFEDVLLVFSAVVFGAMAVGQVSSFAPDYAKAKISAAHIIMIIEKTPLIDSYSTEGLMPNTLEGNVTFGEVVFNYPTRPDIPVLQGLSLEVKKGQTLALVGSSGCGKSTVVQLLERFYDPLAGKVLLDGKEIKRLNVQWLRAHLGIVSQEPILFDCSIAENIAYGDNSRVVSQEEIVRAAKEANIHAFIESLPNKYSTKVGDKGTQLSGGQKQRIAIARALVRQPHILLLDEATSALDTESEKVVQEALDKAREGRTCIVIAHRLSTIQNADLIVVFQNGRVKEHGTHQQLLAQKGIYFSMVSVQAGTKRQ

SMILES: O=C1CCCCCCCCCCCNC(=O)[C@@H](Cc2ccccc2)NC(=O)/C(c2cccc3ccccc23)=C\C=C(\c2ccccc2)CN1
- Activity (KBv200 [1]): 122 mm3
- Cmax [2]: 2670 ng/mL
- IC50 (K562/Adr): 75.9 nM
- Activity (KBv200 [3]): 1703.9 mm3
- T/C (KBv200 [4]): 113%
- inhibition in vivo at 50 mg/kg (KBv200 [5]): 52%
- Activity [6]: Non-Toxic
- Activity [7]: Non-Toxic
- IC50 (KB): 0.7 nM
- IC50 (K562): 0.8 nM
- IC50 (KBv200 [8]): 0.02 nM
- Activity [9]: Active
- Activity (KBv200 [10]): 121.6 mm3
- half-life [11]: 2.08 h
- AUC(0-t) [12]: 9470 ng·h/mL
- Activity [13]: Non-Toxic
- Activity (KBv200 [14]): 1059.5 mm3
- Activity (KBv200 [15]): inactive
- AUC(0-inf) [16]: 20600 ng·h/mL
- AUC(0-inf) [17]: 4350 ng·h/mL
- IC50 (KBv200 [18]): 0.9 nM
- Tmax [19]: 3 h
- inhibition in vivo at 25 mg/kg (KBv200 [20]): 35%
- Activity [21]: Non-Toxic
- bioavailability [22]: 21.9%
- Activity [23]: Non-Toxic
- AUC(0-t) [24]: 4320 ng·h/mL
- IC50 at 48 h [25]: > 100000 nM
- T/C (KBv200 [26]): 65%
- half-life [27]: 11.9 h
- inhibition in vivo at 50 mg/kg (KBv200 [28]): 19%
- IC50 (OVCAR-8): 4.6 nM
- clearance [29]: 11.9 mL/min/kg
- Tmax [30]: 2.67 h
- AUC(0-inf) [31]: 9490 ng·h/mL
- IC50 (KBv200 [32]): 37.5 nM
- AUC(0-t) [33]: 17000 ng·h/mL
- IC50 at 48 h [34]: > 100000 nM
- Activity (KBv200 [35]): 119.8 mm3
- bioavailability [36]: 47.3%
- T/C (KBv200 [37]): 48%
- Ratio IC50 (KBv200 [38]): 432
- Activity (KBv200 [39]): 1384 mm3
- IC50 (NCI/ADR-RES): 116 nM
- Activity [40]: Non-Toxic
- Cmax [41]: 1930 ng/mL
- half-life [42]: 2.56 h
